Earlier results as cited in US12508269B2, “Parenteral dosage form of carboplatin” (priority 2018, dated 2025).

[NH2][Pt]1([NH2])[O]C(=O)C2(CCC2)C(=O)[O]1 [carboplatin, diammine [1,1-cyclobutanedicarboxylato(2-)-0, 0′]]
time for which reconstituted or diluted aqueous solutions were stable (Myres et al, refrigeration in the dark or room temperature exposed to fluorescent light): seven
time for which reconstituted solutions are stable (pack insert of Paraplatin and references): 8 h
